In patent US8691854B2, “Chemical compounds and the uses thereof as a medicine” (Trophos, priority 2005, dated 2014):

Tested on: primary neurones isolated from rat striatum expressing mutated huntingtin
Experiment: Protection of striatum neurones in a death test induced by over-expression of a mutated form of huntingtin, GFP as reporter gene
Format: cell-based
Details: survival of GFP-positive cells minus DMSO, relative to BDNF (5 ng/ml) minus DMSO, active when ratio larger than 0.2
Protocol: Evaluation of the Protection Provided by the Compound of Formula I on Striatum Neurones in a Death Test Induced by Over-Expression of a Mutated Form of Huntingtine by Using GFP as Reporter Gene
Primary cultures of striatum neurones are prepared as described in the literature (Mao L. et al., Methods Mol. Med., 2003, 79: 379-86).
Before sowing, an expression vector containing a promoter element followed by the DNA coding for a truncated form of huntingtin which comprises the first 480 amino acids and 68 CAG codons (Saudou et al., Cell, 1998, 95:55-66), purified beforehand, is introduced by electroporation according to the procedure described by Raoul et al., (Neuron, 2002, 35:1067-83).
A second expression vector, also purified beforehand, containing DNA coding for the green fluorescent protein (GFP) (Columbia University) is also electroporated and is used as a reporter gene.
The cells which survive electroporation are sown at a density of 4,000 cells per well on 96-well plates. The culture is achieved in 175 μl of Neurobasal medium (GIBCO) complemented with final 1 mM of pyruvate and with B-27 1/100 (Beckton Dickinson). The cells are maintained in the culture for 6 days without changing the medium.
[…] Positive controls are made by adding BDNF (Brain-Derived Neurotrophic Factor) at 5 ng/ml (Tebu) finally. The negative controls only receive 0.5% DMSO.
Cell death is evaluated after 7 days by counting the number of living cells expressing GFP.
The activity of the compounds to be tested was evaluated by their capability of preventing death of striatum neurones grown in the Neurobasal medium, as compared with survival of striatum neurones in a medium supplemented with BDNF.
The results are expressed as a ratio evaluating survival of positive GFP cells in the presence of the compound to be tested. This is therefore the number of living cells after treatment with the compound to be tested, reduced by the number of living cells after treatment with DMSO, based on (divided by) the number of survival cells after treatment with BDNF, reduced by the number of living cells after treatment with DMSO.
This ratio therefore represents the survival percentage due to the tested compound relatively to survival induced by BDNF.
In this test, a compound is considered as being active when said ratio is larger than 0.2 i.e. when it has a neuroprotective activity at least equal to 20% of the neuroprotective activity of BDNF.

| Molecule | GFP ratio (1 μM compound) | GFP ratio (3 μM compound) | also measured |
| --- | --- | --- | --- |
| FC(F)(F)c1ccc(-c2csc(NN=CC=Cc3ccccn3)n2)cc1 [Example 26] | – | – | GFP ratio (0.3 μM compound): >0.2 |
| Clc1ccc(-c2csc(NN=CC=Cc3ccncc3)n2)cc1 [Example 8] | – | – | GFP ratio (10 μM compound): >0.2 |
| Nc1cccc(C=CC=NNc2nc(-c3ccc(C(F)(F)F)cc3)cs2)c1 [Example 17] | >0.2 | – | – |
| Nc1cccc(C=CC=NNc2nc(-c3ccc(Cl)cc3)cs2)c1 [Example 14] | >0.2 | – | – |
| Cc1ccccc1C=CC=NNc1nc(-c2ccc(Cl)cc2)cs1 [Example 9] | – | >0.2 | – |
| COc1cccc(C=CC=NNc2nc(-c3ccc(Cl)cc3)cs2)c1 [Example 6] | – | – | GFP ratio (10 μM compound): >0.2 |
| N#Cc1cccc(C=CC=NNc2nc(-c3cccc(O)c3)cs2)c1 [Example 19] | – | >0.2 | – |
| Fc1ccccc1C=CC=NNc1nc(-c2ccc(Cl)cc2)cs1 [Example 1] | >0.2 | – | – |
| O=[N+]([O-])c1cccc(C=CC=NNc2nc(-c3ccc(C(F)(F)F)cc3)cs2)c1 [Example 13] | >0.2 | – | – |
| Fc1ccc(C=CC=NNc2nc(-c3ccc(C(F)(F)F)cc3)cs2)cc1 [Example 29] | – | >0.2 | – |
| N#Cc1cccc(C=CC=NNc2nc(-c3ccc(Cl)cc3)cs2)c1 [Example 10] | >0.2 | – | – |
| Clc1ccc(-c2csc(NN=CC=Cc3ccccn3)n2)cc1 [Example 25] | >0.2 | – | – |
| CS(=O)(=O)c1cccc(C=CC=NNc2nc(-c3ccc(Cl)cc3)cs2)c1 [Example 18] | >0.2 | – | – |
| COc1cc(Cl)ccc1-c1csc(NN=CC=Cc2ccccc2)n1 [Example 22] | – | >0.2 | – |
| Oc1cccc(-c2csc(NN=CC=Cc3ccccc3)n2)c1 [Example 7] | – | >0.2 | – |
| COc1ccccc1C=CC=NNc1nc(-c2ccc(Cl)cc2)cs1 [Example 3] | – | >0.2 | – |
| 3-(3-nitrophenyl)-2-propenal-[4-(4-chlorophenyl-2-thiazolyl)hydrazone [Example 2] | – | >0.2 | – |
| 3-(2-chlorophenyl)-2-propenal-[4-(4-chlorophenyl-2-thiazolyl)hydrazone [Example 12] | – | – | GFP ratio (10 μM compound): >0.2 |
| FC(F)(F)c1ccc(-c2csc(NN=CC=Cc3ccc4c(c3)OCO4)n2)cc1 [Example 21] | >0.2 | – | – |
| FC(F)(F)c1ccc(-c2csc(NN=CC=Cc3ccncc3)n2)cc1 [Example 16] | – | >0.2 | – |
| CS(=O)(=O)c1cccc(C=CC=NNc2nc(-c3ccc(C(F)(F)F)cc3)cs2)c1 [Example 24] | – | – | GFP ratio (0.3 μM compound): >0.2 |
| N#Cc1cccc(C=CC=NNc2nc(-c3ccc(C(F)(F)F)cc3)cs2)c1 [Example 11] | >0.2 | – | – |
